Results from article PMC5443610 (Journal of Medicinal Chemistry, 2017).
Values after ≈ are worked out from the molar mass of the structure shown.

Key:
BRPF1 BD = target: T1, BRPF1 BD (Homo sapiens, UniProt P55201); assay: TR-FRET binding competition assay
T1 sequence (P55201 626-740): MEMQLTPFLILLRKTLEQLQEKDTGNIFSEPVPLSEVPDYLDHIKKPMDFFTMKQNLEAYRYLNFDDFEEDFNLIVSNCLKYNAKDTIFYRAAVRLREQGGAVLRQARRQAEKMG

[1] = High-throughput aqueous solubility from DMSO solution; format: physicochemical; settings: pH 6.5 buffer
BRPF3 BD = target: T2, BRPF3 BD (Homo sapiens, UniProt Q9ULD4); assay: TR-FRET binding competition assay
T2 sequence (Q9ULD4 592-711): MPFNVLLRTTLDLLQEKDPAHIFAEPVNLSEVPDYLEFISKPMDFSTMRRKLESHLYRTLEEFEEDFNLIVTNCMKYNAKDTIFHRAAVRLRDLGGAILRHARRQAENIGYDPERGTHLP

[2] = Reversed-phase HPLC lipophilicity; format: physicochemical; settings: pH 7.5
Caco2 cells = assay: Caco2 permeability assay; format: in vitro ADME
BRPF1 BD/H4 = target: T3, BRPF1 BD/H4 (Homo sapiens, UniProt P55201); assay: NanoBRET cellular assay; format: cell-based
T3 sequence (P55201 626-732): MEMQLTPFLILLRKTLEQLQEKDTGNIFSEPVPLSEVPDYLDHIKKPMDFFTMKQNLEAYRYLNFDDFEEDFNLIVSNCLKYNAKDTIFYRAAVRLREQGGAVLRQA

[3] = Metabolic stability in liver microsomes; format: in vitro ADME; settings: mouse liver microsomes
BRPF3 = target: T4, BRPF3 (Homo sapiens, UniProt Q9ULD4); assay: AlphaScreen; format: binding
T4 sequence (Q9ULD4 589-693 limits assumed): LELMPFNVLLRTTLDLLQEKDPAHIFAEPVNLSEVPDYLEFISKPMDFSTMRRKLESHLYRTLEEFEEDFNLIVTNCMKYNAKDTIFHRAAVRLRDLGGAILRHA

BRPF1 = target: T5, BRPF1 (Homo sapiens, UniProt P55201); assay: AlphaScreen; format: binding
T5 sequence (P55201 628-732 limits assumed): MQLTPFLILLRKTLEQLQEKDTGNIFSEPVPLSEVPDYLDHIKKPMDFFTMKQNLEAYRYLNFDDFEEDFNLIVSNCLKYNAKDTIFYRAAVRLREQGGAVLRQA

[4] = In vivo rat pharmacokinetics; set-up: species or system Wistar rat
[5] = Metabolic stability in liver microsomes; format: in vitro ADME; settings: dog liver microsomes
[6] = Metabolic stability in hepatocytes; format: in vitro ADME; settings: rat hepatocytes
Caco2 permeability assay = format: in vitro ADME; settings: human, Caco-2, pH 7.2, Caco2 Papp (B-A), 2 μM, 2 h
[7] = Metabolic stability in liver microsomes; format: in vitro ADME; settings: human liver microsomes
[8] = Metabolic stability in liver microsomes; format: in vitro ADME; settings: rat liver microsomes
[9] = tested on: panel containing over 300 kinases; assay: Kinase panel; format: biochemical; settings: 10 μM, all cases
CREBBP = CREBBP (Homo sapiens, UniProt Q92793); assay: AlphaScreen; format: binding
Sequence of CREBBP (Q92793 1081-1197): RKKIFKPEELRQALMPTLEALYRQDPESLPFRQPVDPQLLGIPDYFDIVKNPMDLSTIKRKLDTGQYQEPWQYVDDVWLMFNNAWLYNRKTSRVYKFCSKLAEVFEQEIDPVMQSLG

CREBBP BD = CREBBP BD (Homo sapiens, UniProt Q92793); assay: Isothermal titration calorimetry; format: binding
Sequence of CREBBP BD (Q92793 1081-1197): as above

68 potential targets = assay: LeadProfilingScreen; settings: 10 μM compound
TAF1L BD2 = target: T6, TAF1L BD2 (Homo sapiens, UniProt Q8IZX4); assay: biochemical; format: binding
T6 sequence (Q8IZX4 1517-1649): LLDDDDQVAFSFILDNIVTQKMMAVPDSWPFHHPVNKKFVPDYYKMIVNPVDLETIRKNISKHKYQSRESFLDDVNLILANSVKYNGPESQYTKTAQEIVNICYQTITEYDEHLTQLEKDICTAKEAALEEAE

BRPF2 BD/H4 = target: T7, BRPF2 BD/H4 (Homo sapiens, UniProt O95696); assay: NanoBRET cellular assay; format: cell-based; settings: HCT116 cells
T7 sequence (O95696 560-666): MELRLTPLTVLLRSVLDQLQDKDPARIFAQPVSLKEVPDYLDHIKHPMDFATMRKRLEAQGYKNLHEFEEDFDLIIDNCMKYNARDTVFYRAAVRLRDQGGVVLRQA

panel of 22 kinases = assay: Panel of 22 kinases; format: biochemical; settings: data not shown
BRD4 BDs = BRD4 BDs (Homo sapiens, UniProt O60885); assay: AlphaScreen; format: binding

Cn1c(=O)n(C)c2cc(N3C(=O)c4cccc5cccc(c45)C3=O)ccc21 [Compound 6]
IC50 (BRPF1 BD; BRPF1: inactive up to concentration, TR-FRET, HTS hit dose-response): > 20000 nM
solubility at 24 h [1]: 3.7 µg/mL (≈ 10.4 µM)
IC50 (BRPF3 BD): > 20000 nM
chromatographic logD [2]: 2.1
permeability profile in Caco2 cells (Caco2 cells): excellent permeability profile

Cc1cc2c(cc1N1C(=O)c3cccc4c(CCCO)ccc(c34)C1=O)n(C)c(=O)n2C (racemic) [Compound 5, 6-(3-Hydroxypropyl)-2-(1,3,6-trimethyl-2-oxo-2,3-dihydro-1H-benzimidazol-5-yl)-1H-benzo[de]isoquinoline-1,3(2H)-dione]
IC50 (BRPF1 BD; BRPF1 IC50, TR-FRET): 3150 nM
IC50 (BRPF1 BD/H4): > 10000 nM
CLblood [3]: 3.17 mL/min/kg
IC50 (BRPF3): 2450 nM
IC50 (BRPF1): 2280 nM
blood clearance as share of hepatic blood flow [4]: ca. 17%
CLblood ([4]; in vivo): 12.2 mL/min/kg
IC50 (BRPF3 BD): 5550 nM
CLblood [5]: < 0.017 mL/min/kg
Fmax [5]: 100%
CLblood [6]: 63.3 mL/min/kg
Papp B→A at 2 h, 2 μM (Caco2 permeability assay): 19.1 ×10⁻⁶ cm/s
CLblood [7]: < 0.017 mL/min/kg
Fmax [7]: 100%
CLblood [8]: 2.5 mL/min/kg
inhibition in kinase panel [9]: less than 50%
IC50 (CREBBP): 1710 nM
Kd (CREBBP BD): 1390 nM
inhibition or stimulation in LeadProfilingScreen (68 potential targets): ≤ 25%
IC50 (TAF1L BD2): 106 nM

Cc1cc2c(cc1N1C(=O)c3cccc4c(CCCO)ccc(c34)C1=O)n(C)c(=O)n2C (single isomer, unassigned) [atropisomer 1, (−)-6-(3-Hydroxypropyl)-2-(1,3,6-trimethyl-2-oxo-2,3-dihydro-1H-benzimidazol-5-yl)-1H-benzo[de]isoquinoline-1,3(2H)-dione]
IC50 (BRPF1 BD; BRPF1 IC50, TR-FRET): 5860 nM

Cc1cc2c(cc1N1C(=O)c3cccc4c(Cl)ccc(c34)C1=O)n(C)c(=O)n2C [Compound 13, 6-Chloro-2-(1,3,6-trimethyl-2-oxo-2,3-dihydro-1H-benzimidazol-5-yl)-1H-benzo[de]isoquinoline-1,3(2H)-dione]
cellular activity for BRPF1 (BRPF1 BD/H4; NanoBRET): no activity

Cc1cc2c(cc1N1C(=O)c3cccc4cccc(c34)C1=O)n(C)c(=O)n2C [Compound 7, 2-(1,3,6-Trimethyl-2-oxo-2,3-dihydro-1H-benzimidazol-5-yl)-1H-benzo[de]isoquinoline-1,3(2H)-dione]
IC50 (BRPF2 BD/H4): 470 nM

Cn1c(=O)[nH]c2cc(N3C(=O)c4cccc5c(CCCO)ccc(c45)C3=O)ccc21 [Compound 31, 6-(3-Hydroxypropyl)-2-(1-methyl-2-oxo-2,3-dihydro-1H-benzimidazol-5-yl)-1H-benzo[de]isoquinoline-1,3(2H)-dione]
activity for BRPF3 (BRPF3; AlphaScreen): no activity
no activity up to, panel of 22 kinases (panel of 22 kinases): > 10 µM
activity for BRD4 BDs (BRD4 BDs): no activity

Cc1cc2c(cc1N1C(=O)c3cccc4c(CCCO)ccc(c34)C1=O)n(C)c(=O)n2C (single isomer, unassigned) [atropisomer 2, (+)-6-(3-Hydroxypropyl)-2-(1,3,6-trimethyl-2-oxo-2,3-dihydro-1H-benzimidazol-5-yl)-1H-benzo[de]isoquinoline-1,3(2H)-dione]
IC50 (BRPF1 BD; BRPF1 IC50, TR-FRET): 5490 nM
